{"source": "patent US9315498B2", "about": "“Arlethynyl derivatives” (Hoffmann-La Roche Inc., priority 2010, dated 2016)", "molecular_target": "human mGlu5a receptor (Homo sapiens (Human), UniProt P41594)", "sequence (P41594 other isoform, or with tags, fused parts or gaps)": "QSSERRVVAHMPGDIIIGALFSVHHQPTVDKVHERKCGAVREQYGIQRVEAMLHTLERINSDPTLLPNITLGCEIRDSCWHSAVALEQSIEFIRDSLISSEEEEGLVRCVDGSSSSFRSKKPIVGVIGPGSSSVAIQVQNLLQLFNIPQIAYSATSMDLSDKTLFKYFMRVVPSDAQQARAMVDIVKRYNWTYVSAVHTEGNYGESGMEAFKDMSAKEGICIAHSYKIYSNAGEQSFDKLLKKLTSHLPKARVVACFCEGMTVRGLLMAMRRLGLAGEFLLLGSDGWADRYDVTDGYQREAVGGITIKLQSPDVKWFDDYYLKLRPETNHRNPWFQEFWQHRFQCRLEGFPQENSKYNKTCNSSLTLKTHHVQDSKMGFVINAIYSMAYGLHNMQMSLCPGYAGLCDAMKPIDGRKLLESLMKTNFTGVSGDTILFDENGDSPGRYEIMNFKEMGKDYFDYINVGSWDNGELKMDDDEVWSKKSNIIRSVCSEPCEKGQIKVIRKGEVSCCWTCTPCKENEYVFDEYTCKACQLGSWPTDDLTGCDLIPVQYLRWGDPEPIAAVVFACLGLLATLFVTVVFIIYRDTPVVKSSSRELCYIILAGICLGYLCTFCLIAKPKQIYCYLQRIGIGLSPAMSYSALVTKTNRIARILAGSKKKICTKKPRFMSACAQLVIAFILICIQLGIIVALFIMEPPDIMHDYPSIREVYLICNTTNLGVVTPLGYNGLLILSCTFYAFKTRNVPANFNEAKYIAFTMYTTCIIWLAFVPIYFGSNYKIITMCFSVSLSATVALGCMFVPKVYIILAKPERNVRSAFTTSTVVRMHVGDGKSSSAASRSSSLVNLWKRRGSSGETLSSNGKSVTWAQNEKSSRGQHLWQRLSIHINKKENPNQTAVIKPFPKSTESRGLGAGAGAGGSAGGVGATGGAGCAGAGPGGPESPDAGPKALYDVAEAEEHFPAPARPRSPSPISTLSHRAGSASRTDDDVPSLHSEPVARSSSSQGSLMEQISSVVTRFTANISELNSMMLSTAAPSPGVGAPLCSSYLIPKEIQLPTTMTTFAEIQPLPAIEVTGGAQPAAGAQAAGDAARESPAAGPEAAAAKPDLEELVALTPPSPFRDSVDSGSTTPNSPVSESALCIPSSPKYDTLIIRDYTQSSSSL", "assay": "Intracellular Ca2+ mobilization assay (mGlu5 PAM)", "format": "cell-based", "conditions": "for EC50: HEK-293 cells stably transfected with human mGlu5a, L-glutamate added at EC20 after pre-incubation with test compound, read-out: EC50 (nM) mGlu5PAM; for Emax: maximal response in % of the maximal stimulatory effect obtained with saturating concentrations of L-glutamate, read-out: Eff. (%)", "outline": "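HEK-293 cells stably expressing human mGlu5a at low level were loaded with Fluo-4AM and preincubated 10–30 min at 37 °C with 11-point half-log compound dilutions. L-glutamate was then added at its daily-determined EC20 (typically around 80 μM). Peak fluorescence minus basal, normalized to maximal glutamate effect, was fitted to give EC50, Hill slope and maximal response.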"}
{"smiles": "O=C1OC2(CC2)CN1c1ccc(C#Cc2ccccc2)cn1", "note": "[Example 9, 6-(5-Phenylethynyl-pyridin-2-yl)-4-oxa-6-aza-spiro[2.4]heptan-5-one]", "values": [{"measurement": "EC50", "value": 15, "unit": "nM"}, {"measurement": "Emax", "value": 83, "unit": "%"}]}
{"smiles": "CN1C(=O)N(c2ccc(C#Cc3cnn(C)c3)cn2)CC1(C)C", "note": "[Example 50, 3,4,4-Trimethyl-1-[5-(1-methyl-1H-pyrazol-4-ylethynyl)-pyridin-2-yl]-imidazolidin-2-one]", "values": [{"measurement": "EC50", "value": 27, "unit": "nM"}, {"measurement": "Emax", "value": 41, "unit": "%"}]}
{"smiles": "CN1C(=O)N(c2ccc(C#Cc3cccc(F)c3)cn2)CC1(C)C", "note": "[Example 53, 1-[5-(3-Fluoro-phenylethynyl)-pyridin-2-yl]-3,4,4-trimethyl-imidazolidin-2-one]", "values": [{"measurement": "EC50", "value": 29, "unit": "nM"}, {"measurement": "Emax", "value": 103, "unit": "%"}]}
{"smiles": "CO[C@H]1C(=O)N(c2ncc(C#Cc3cccc(F)c3)cn2)CC1(C)C", "note": "(single isomer, unassigned) [Example 132, (S or R)-1-[5-(3-Fluoro-phenylethynyl)-pyrimidin-2-yl]-3-methoxy-4,4-dimethyl-pyrrolidin-2-one]", "values": [{"measurement": "EC50", "value": 21, "unit": "nM"}, {"measurement": "Emax", "value": 69, "unit": "%"}]}
{"smiles": "CC1(C)CN(c2ccc(C#Cc3cncnc3)cn2)C(=O)O1", "note": "[Example 30, 5,5-Dimethyl-3-(5-pyrimidin-5-ylethynyl-pyridin-2-yl)-oxazolidin-2-one]", "values": [{"measurement": "EC50", "value": 80, "unit": "nM"}, {"measurement": "Emax", "value": 43, "unit": "%"}]}
{"smiles": "CN1C(=O)N(c2cnc(C#Cc3ccccc3)cn2)CC1(C)C", "note": "[Example 156, 3,4,4-Trimethyl-1-(5-(phenylethynyl)pyrazin-2-yl)imidazolidin-2-one]", "values": [{"measurement": "EC50", "value": 24, "unit": "nM"}, {"measurement": "Emax", "value": 58, "unit": "%"}]}
